Patent publication US10905683B2, “Compositions and uses of amidine derivatives” (BIOCRYST PHARMACEUTICALS, INC., priority 2014, dated 2021)
Where two headings read alike, the source gives them in different places.

Tests used:
[1] = Phase 1 Part 2, multiple ascending dose pharmacokinetics (7 days, q8h); type: in vivo, human; details: for Cmax / AUC(0-t) / Tmax / AUC / half-life / concentration at 8 h: human, plasma, oral; for AUC(0-t): read-out: AUC0-8; for concentration at 8 h: read-out: Ctau
Experimental: Part 2 of the study evaluated the safety, tolerability, PK, and PD of multiple ascending doses of the compound of Example 1. Twelve subjects were administered a 7-day course of the compound of Example 1 (n=10 subjects/cohort received the API and n=2 subjects/cohort received matching placebo) according to the following dose regimens: 100 mg of the compound of Example 1 or placebo every 8 hours (q8h) in Cohort 1; 200 mg of the compound of Example 1 or placebo q8h in Cohort 2; 400 mg of the compound of Example 1 or placebo q8h in Cohort 3 and 800 mg of the compound of Example 1 or placebo q8h in Cohort 4.
A total of 48 subjects were enrolled in Part 2 of the Study and 47 subjects completed the study. A summary of pharmacokinetic parameters for the compound of Example 1 for the first dose on Day 1 and last dose on Day 7 is presented in Table 17. […] Day 7 geometric mean exposure (AUCtau and Cmax) did increase with increasing dose. Drug exposure was dose proportional through 400 mg three times a day. At 400 mg three times a day, pre-dose geometric mean drug levels and coefficient of variation (CV) on day 7 were 28.6 ng/ml and 77% and post-dose geometric mean maximum drug levels and CV were 152 ng/ml and 57%. Plasma concentrations of the compound of Example 1 over 25 ng/ml are expected to be efficacious in treating conditions such as, but not limited to, HAE and AAE.

[2] = Relative bioavailability crossover study, soft v. hard gelatin capsules and food effect; type: in vivo, human
Experimental: A single dose, randomized, 3-period crossover study was conducted to evaluate the relative bioavailability of the compound of Example 1 formulated as a soft gelatin capsule to the compound of Example 1 formulated as a hard gelatin capsule and to determine the effect of food on the pharmacokinetics of the compound of Example 1. The goals of this study were to ascertain the relative bioavailability and pharmacokinetics of the compound of Example 1 in soft gelatin capsules to hard gelatin capsules when administered following an overnight fast in healthy subjects. In addition, the study estimated the effect of a high-fat meal upon the pharmacokinetics of the compound of Example 1 following single dose administration of 400 mg of the compound of Example 1 in a soft gelatin capsules to healthy subjects. Hard and soft gelatin capsules were prepared as in Example 8 and 9, respectively, below.
The study was a single-dose, open-label, randomized, 3-way cross-over design. During each treatment period, eighteen subjects will receive a single dose of one of the following treatments in a randomized sequence:
Treatment A: BCX4161 400 mg as 4×100 mg hard gelatin capsules following an overnight fast
Treatment B: BCX4161 400 mg as 4×100 mg soft gelatin capsules following an overnight fast
Treatment C: BCX4161 400 mg as 4×100 mg soft gelatin capsules following a high fat meal […]

[3] = Concentration achieved in formulations and excipient mixtures; type: physicochemical
Experimental: In initial formulation work for the amidine compounds described herein, in particular 3-[2-(4-carbamimidoyl-phenylcarbamoyl)-5-methoxy-4-vinyl-phenyl]-6-(cyclopropylmethyl-carbamoyl)-pyridine-2-carboxylic acid, extensive studies were carried out to identify a suitable mixture of excipients to produce the oral formulation described herein.
Specifically, a variety of approaches were taken to develop suitable oral formulations of 3-[2-(4-carbamimidoyl-phenylcarbamyl)-5-methoxy-4-vinyl-phenyl]-6-(cyclopropylmethyl-carbamoyl)-pyridine-2-carboxylic acid. The approaches taken included use of a variety of hydrophilic polymers, including α-cyclodextrin and a polyanionic 3-cyclodextrin derivative with a sodium sulfonate salt separated from the lipophilic cavity by a butyl ether or sulfobutylether spacer group in combination with a variety of co-solvents. In addition, the compound was evaluated in formulations created by a number of different technologies (such as dry blends, nanosuspensions, solid dispersion and emulsions) using a variety of approaches.

[4] = 400 mg three times a day, day 7
[5] = 100 mg, Day 1, 100 mg q 8 h, GM
[6] = 100 mg, Day 1, 100 mg q 8 h, Median
[7] = 100 mg, Day 7, 100 mg q 8 h, GM
[8] = 100 mg, Day 7, 100 mg q 8 h, Median
[9] = 200 mg, Day 1, 200 mg q 8 h, GM
[10] = 200 mg, Day 1, 200 mg q 8 h, Median
[11] = 200 mg, Day 7, 200 mg q 8 h, GM
[12] = 200 mg, Day 7, 200 mg q 8 h, Median
[13] = 400 mg, Day 1, 400 mg q 8 h, GM
[14] = 400 mg, Day 1, 400 mg q 8 h, Median
[15] = 400 mg, Day 7, 400 mg q 8 h, GM
[16] = 400 mg, Day 7, 400 mg q 8 h, Median
[17] = 800 mg, Day 1, 800 mg q 8 h, GM
[18] = 800 mg, Day 1, 800 mg q 8 h, Median
[19] = 800 mg, Day 7, 800 mg q 8 h, GM
[20] = 800 mg, Day 7, 800 mg q 8 h, Median

C=Cc1cc(C(=O)Nc2ccc(C(=N)N)cc2)c(-c2ccc(C(=O)NCC3CC3)nc2C(=O)O)cc1OC [Example 1, 3-[2-(4-carbamimidoyl-phenylcarbamoyl)-5-methoxy-4-vinyl-phenyl]-6-(cyclopropylmethyl-carbamoyl)-pyridine-2-carboxylic acid]
post-dose geometric mean maximum drug level [1, 4]: 152 ng/mL
pre-dose geometric mean drug level [1, 4]: 28.6 ng/mL
accumulation in Cmax and AUC after repeated dosing compared to first day ([1]; 7 days q8h): approximately 30%
Ctau ([1]; Day 7, 100 mg q 8 h, GM): 8.34 ng/mL
DN AUCtau ([1]; Day 7, 100 mg q 8 h, GM): 2.37 ng·h/mL/mg
Ctau ([1]; Day 7, 100 mg q 8 h, Median): 7.92 ng/mL
DN AUCtau ([1]; Day 7, 200 mg q 8 h, GM): 1.58 ng·h/mL/mg
DN AUCtau ([1]; Day 7, 400 mg q 8 h, GM): 1.34 ng·h/mL/mg
Ctau ([1]; Day 7, 800 mg q 8 h, GM): 23.7 ng/mL
DN AUCtau ([1]; Day 7, 800 mg q 8 h, GM): 0.847 ng·h/mL/mg
Ctau ([1]; Day 7, 800 mg q 8 h, Median): 30.3 ng/mL
time of maximal concentrations postdose ([1]; across dosing days and cohorts): approximately 2 hours
Cmax [1, 5]: 0.0545 µg/mL
AUC(0-t) [1, 5]: 0.173 µg·h/mL
Cmax [1, 6]: 0.0494 µg/mL
Tmax [1, 6]: 1 h
AUC(0-t) [1, 6]: 0.185 µg·h/mL
AUC [1, 7]: 0.237 µg·h/mL
Cmax [1, 7]: 0.0726 µg/mL
half-life ([1]; 100 mg, Day 7, 100 mg q 8 h, GM, read-out: t1/2 (converted)): 12.4 h
AUC [1, 8]: 0.246 µg·h/mL
Cmax [1, 8]: 0.0712 µg/mL
Tmax [1, 8]: 2 h
half-life ([1]; 100 mg, Day 7, 100 mg q 8 h, Median, read-out: t1/2 (converted)): 11.5 h
Cmax [1, 9]: 0.072 µg/mL
AUC(0-t) [1, 9]: 0.236 µg·h/mL
Cmax [1, 10]: 0.0897 µg/mL
Tmax [1, 10]: 2 h
AUC(0-t) [1, 10]: 0.251 µg·h/mL
AUC [1, 11]: 0.316 µg·h/mL
Cmax [1, 11]: 0.0836 µg/mL
concentration at 8 h [1, 11]: 0.0129 µg/mL
half-life ([1]; 200 mg, Day 7, 200 mg q 8 h, GM, read-out: t1/2 (converted)): 12.6 h
AUC [1, 12]: 0.385 µg·h/mL
Cmax [1, 12]: 0.0923 µg/mL
Tmax [1, 12]: 2 h
concentration at 8 h [1, 12]: 0.013 µg/mL
half-life ([1]; 200 mg, Day 7, 200 mg q 8 h, Median, read-out: t1/2 (converted)): 13.5 h
Cmax [1, 13]: 0.119 µg/mL
AUC(0-t) [1, 13]: 0.421 µg·h/mL
Cmax [1, 14]: 0.124 µg/mL
Tmax [1, 14]: 2 h
AUC(0-t) [1, 14]: 0.395 µg·h/mL
AUC [1, 15]: 0.534 µg·h/mL
Cmax [1, 15]: 0.152 µg/mL
concentration at 8 h [1, 15]: 0.0174 µg/mL
half-life ([1]; 400 mg, Day 7, 400 mg q 8 h, GM, read-out: t1/2 (converted)): 13 h
AUC [1, 16]: 0.463 µg·h/mL
Cmax [1, 16]: 0.129 µg/mL
Tmax [1, 16]: 2 h
concentration at 8 h [1, 16]: 0.0146 µg/mL
half-life ([1]; 400 mg, Day 7, 400 mg q 8 h, Median, read-out: t1/2 (converted)): 12.7 h
Cmax [1, 17]: 0.143 µg/mL
AUC(0-t) [1, 17]: 0.504 µg·h/mL
Cmax [1, 18]: 0.153 µg/mL
Tmax [1, 18]: 2 h
AUC(0-t) [1, 18]: 0.581 µg·h/mL
AUC [1, 19]: 0.678 µg·h/mL
Cmax [1, 19]: 0.187 µg/mL
half-life ([1]; 800 mg, Day 7, 800 mg q 8 h, GM, read-out: t1/2 (converted)): 7.46 h
AUC [1, 20]: 0.835 µg·h/mL
Cmax [1, 20]: 0.24 µg/mL
Tmax [1, 20]: 2 h
half-life ([1]; 800 mg, Day 7, 800 mg q 8 h, Median, read-out: t1/2 (converted)): 8.03 h
half-life ([1]; calculated over a 24 hour period, read-out: terminal elimination half-life (converted)): ~10 h
geometric mean Cmax, soft gelatin capsules as compared to hard gelatin capsules ([2]; 400 mg single dose, fasting): approximately 80%
bioavailability ([2]; formulated in a soft gelatin capsule): good bioavailability
concentration dissolved ([3]; 1,2-propanediol, especially as part of a mixture of polar protic solvents): up to 140 mg/ml
concentration in formulation ([3]; initial formulations: cyclodextrins, co-solvents, dry blends, nanosuspensions, solid dispersion, emulsions): less than 10.5 mg/ml
concentration in formulation ([3]; novel excipient mixtures of the invention): at least 100 mg/ml
concentration dissolved ([3]; polyethylene glycol 600, especially as part of a mixture of polar protic solvents): up to 140 mg/ml
